Results taken from patent publication US20240360146A1, “BRUTON'S TYROSINE KINASE AND MUTANT DEGRADER, COMPOSITION AND APPLICATION THEREOF” (HANGZHOU HEALZEN THERAPEUTICS CO., LTD., priority 2021, published 2024).

Molecular target: T1, BTK (Homo sapiens, UniProt Q06187)
T1 construct: endogenous in cells; host or cells: Mino cells
Assay: BTK degradation activity test in Mino cells
Format: cell-based
Conditions: 16 h incubation, Western blot or Elisa
How it was run: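 Mino cells treated with a concentration series of compound for 16 h, then lysed; total protein by BCA. BTK quantified by Western blot or ELISA, degradation rate calculated against blank control, and DC50 fitted from the degradation curve.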

T1 sequence (Q06187 whole entry): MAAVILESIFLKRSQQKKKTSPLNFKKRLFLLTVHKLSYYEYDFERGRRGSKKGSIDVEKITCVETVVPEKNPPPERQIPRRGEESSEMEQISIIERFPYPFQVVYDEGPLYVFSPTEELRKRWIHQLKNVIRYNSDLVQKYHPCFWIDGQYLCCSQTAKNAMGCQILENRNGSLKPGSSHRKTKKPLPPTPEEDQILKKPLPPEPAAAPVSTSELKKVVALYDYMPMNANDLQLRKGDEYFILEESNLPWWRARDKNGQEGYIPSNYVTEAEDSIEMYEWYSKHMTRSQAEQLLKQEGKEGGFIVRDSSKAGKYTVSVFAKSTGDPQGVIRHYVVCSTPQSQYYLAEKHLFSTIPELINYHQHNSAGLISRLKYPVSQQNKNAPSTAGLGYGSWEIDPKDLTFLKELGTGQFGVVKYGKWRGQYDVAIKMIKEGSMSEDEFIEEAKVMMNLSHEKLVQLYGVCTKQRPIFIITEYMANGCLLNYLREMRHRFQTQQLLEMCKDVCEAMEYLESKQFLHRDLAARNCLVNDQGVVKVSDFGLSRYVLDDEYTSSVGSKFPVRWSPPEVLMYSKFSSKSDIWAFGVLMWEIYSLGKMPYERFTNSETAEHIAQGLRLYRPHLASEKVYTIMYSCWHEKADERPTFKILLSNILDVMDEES

Compound `CN1CCN([C@@H]2CCCN(c3nnc(C(N)=O)c(Nc4ccc(N5CCN(CC6CCN(c7ccc(N8CCC(=O)NC8=O)cc7S(C)(=O)=O)CC6)CC5)c(F)c4)n3)C2)C1=O` [Compound 197, (R)-5-((4-(4-((1-(4-(2,4-dioxotetrahydropyrimidin-1(2H)-yl)-2-(methylsulfonyl)phenyl)piperidin-4-yl)methyl)piperazin-1-yl)-3-fluorophenyl)amino)-3-(3-(3-methyl-2-oxoimidazolidin-1-yl)piperidin-1-yl)-1,2,4-triazin-6-carboxamide] has a DC50 of under 1 nM.

Compound `N#Cc1cc(Nc2nc(N3CCCC(N4CCN(C5CCCC5)C4=O)C3)cnc2C(N)=O)ccc1C1CCN(CC2CCN(c3ccc4c(c3)C(=O)N(C3CCC(=O)NC3=O)C4=O)C2)CC1` (stereo not shown) [Compound 042, 3-((3-cyano-4-(1-((1-(2-(2,6-dioxopiperidin-3-yl)-1,3-dioxoisoindolin-5-yl)pyrrolidin-3-yl)methyl)piperidin-4-yl)phenyl)amino)-5-(3-(3-cyclopentyl-2-oxoimidazolin-1-yl)piperidin-1-yl)pyrazin-2-carboxamide] has a DC50 of under 1 nM.

`CN1CCN([C@@H]2CCCN(c3nnc(C(N)=O)c(Nc4ccc(N5CCN(CC6CCN(c7ccn8c(C9CCC(=O)NC9=O)cnc8c7)CC6)CC5)c(F)c4)n3)C2)C1=O` (stereo partly drawn) [Compound 244, 5-((4-(4-((1-(3-(2,6-dioxopiperidin-3-yl)imidazo[1,2-a]pyridin-7-yl)piperidin-4-yl)methyl)piperazin-1-yl)-3-fluorophenyl)amino)-3-((R)-3-(3-methyl-2-oxoimidazolidin-1-yl)piperidin-1-yl)-1,2,4-triazin-6-carboxamide] gave a DC50 of under 1 nM.

`NC(=O)c1ncc(N2CCCC(N3CCN(C4COC4)C3=O)C2)nc1Nc1ccc(N2CC3(C2)CN(c2ccc4c(c2)C(=O)N(C2CCC(=O)NC2=O)C4=O)C3)cc1` (stereo not shown) [Compound 018, 3-((4-(6-(2-(2,6-dioxopiperidin-3-yl)-1,3-dioxoisoindol-5-yl)-2,6-diazaspirocyclo[3.3]heptan-2-yl)phenyl)amino)-5-(3-(3-(oxetan-3-yl)-2-oxoimidazolin-1-yl)piperidin-1-yl)pyrazin-2-carboxamide] showed a DC50 of under 1 nM.

`CN1CCN([C@@H]2CCCN(c3nnc(C(N)=O)c(Nc4ccc(N5CCN(CC6CCN(c7ccc(C(=O)NC8CCC(=O)NC8=O)c8[nH]cnc78)C6)CC5)c(F)c4)n3)C2)C1=O` (stereo partly drawn) [Compound 178, 4-(3-((4-(4-((6-carbamoyl-3-((R)-3-(3-methyl-2-oxoimidazolidin-1-yl)piperidin-1-yl)-1,2,4-triazin-5-yl)amino)-2-fluorophenyl)piperazin-1-yl)methyl)pyrrolidin-1-yl)-N-(2,6-dioxopiperidin-3-yl)-1Hbenzimidazol-7-carboxamide] showed a DC50 of under 1 nM.

With `CN1CCN(C2CCCN(c3nnc(C(N)=O)c(Nc4ccc(C5CCN(CC6CCN(c7ccc8c(c7)n(C)c(=O)n8C7CCC(=O)NC7=O)CC6)CC5)cc4)n3)C2)C1=O` (stereo not shown) [Compound 088, 5-((4-(1-((1-(1-(2,6-dioxopiperidin-3-yl)-3-methyl-2-oxo-2,3-dihydro-1H-benzo[d]imidazol-5-yl)piperidin-4-yl)methyl)piperidin-4-yl)phenyl)amino)-3-(3-(3-methyl-2-oxoimidazolin-1-yl)piperidin-1-yl)-1,2,4-triazin-6-carboxamide] the DC50 was under 1 nM.

In the case of `NC(=O)c1nnc(N2CCCC(N3CCN(C4CCOCC4)C3=O)C2)nc1Nc1ccc(C2CCN(CC3CCN(c4ccc5c(c4)C(=O)N(C4CCC(=O)NC4=O)C5=O)CC3)CC2)cc1` (stereo not shown) [Compound 063, 5-((4-(1-((1-(2-(2,6-dioxopiperidin-3-yl)-1,3-dioxoisoindol-5-yl)piperidin-4-yl)methyl)piperidin-4-yl)phenyl)amino)-3-(3-(2-oxo-3-(tetrahydro-2H-pyran-4-yl)imidazolin-1-yl)piperidin-1-yl)-1,2,4-triazin-6-carboxamide], the DC50 is reported as over 1 nM.
